In PubChem BioAssay (NCI) one finds GI50 and TGI data, which are given here for 18 compounds.

“And” between values parts separate entries of the source, which are not always exact repeats. Equal values may be shown once.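 Tested at 5 concentrations; 48 h exposure; 96-well plates; endpoints linearly interpolated, else capped at highest concentration. GI50 is the concentration that inhibits growth by half. The concentration for full growth arrest is given as TGI.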

The subject of the first experiment is NCI/ADR-RES ovarian. The experiment is described as follows: inhibition of tumour cell growth, NCI panel, 48 h.
For the compound `CN(C(=O)c1ccc(C(F)(F)F)cc1)c1ccc(Oc2ccc3c(c2)cc(C(=O)N2CCN(Cc4ccc(OC(F)F)cc4)CC2)n3C)nc1`, the GI50 is 0.437 µM and the TGI was more than 100 µM.

In the case of `O=S(=O)(CCn1c(Sc2ccccc2)c(Sc2ccccc2)c2ccccc21)c1ccccc1`, the TGI is more than 100 µM.

`O=c1[nH]c(Nc2nc3ccccc3[nH]2)nc(O)c1-c1ccccc1`: the TGI is more than 100 µM.

Regarding `O=C(Nc1ccc(Cl)cc1)c1cccc(NC2=C(Cl)C(=O)N(Cc3ccccc3)C2=O)c1`, the GI50 was 10.3 µM and the TGI was 24.3 µM.

Take `O=C(/C=C/c1ccncc1)c1cc(Cl)ccc1O`: the GI50 is 22.7 µM and the TGI worked out at 66.4 µM.

For the compound `Nc1ncnc2n[nH]c(Nc3ccc(F)cc3)c12`, the GI50 is 65.3 µM and the TGI is more than 100 µM.

With `OCC#Cc1ccccc1C#Cc1ccccc1`, the GI50 is 14.8 µM and the TGI was 30.8 µM.

Take `CCN(CC)c1ccc(-c2cc(-c3cc(OC)c(OC)c(OC)c3)nc(N3CCOCC3)c2C#N)cc1`: the GI50 was 0.709 µM and the TGI amounted to 27.8 µM.

`CC(=O)OC1=CC(n2cc(F)c(=O)[nH]c2=O)OC(C)C1=O` (configuration not stated) yielded a TGI of more than 100 µM.

Compound `NC1(C(=O)OCc2ccccc2)CCCC1` showed a TGI of more than 100 µM.

Consider `Cc1cc(/C=C/c2ccc3cc(N(C)C)ccc3[n+]2C)c(C)n1-c1ccccc1`, for which the GI50 is 1.67 µM and the TGI was 13.4 µM.

Consider `Cn1cnc([N+](=O)[O-])c1S(=O)(=O)Oc1cccc2ccccc12`, for which the GI50 was 7.59 µM and the TGI was 33 µM.

In turn, `CCCC(=O)OC1CC(n2cc(F)c(=O)[nH]c2=O)OC1COP(=O)(OCC(Cl)(Cl)Cl)OCC(Cl)(Cl)Cl` (configuration not stated) came in with a TGI of more than 31.6 µM.

On to `Fc1cc2[nH]ncc2c2c3c(c(-c4cn[nH]c4)nc12)CCCC3`, for which the GI50 was 2.38 µM and the TGI is 7.9 µM.

With `COc1cc(OC)cc(-c2cc(=O)c3c(OC)c(OC)c(OC)c(OC)c3o2)c1`, the TGI was more than 100 µM.

On to `CSc1nc(NC2OCC(OC(C)=O)C(OC(C)=O)C2OC(C)=O)c(N=CC=Nc2c(NC3OCC(OC(C)=O)C(OC(C)=O)C3OC(C)=O)nc(SC)[nH]c2=O)c(=O)[nH]1` (configuration not stated), for which the TGI is more than 100 µM.

Turning to `CN(C)CCSC1=Nc2ccc(Cl)cc2C(c2ccccc2Cl)=NC1`, the GI50 is 15 µM and 42.4 µM; the TGI is 37.1 µM and > 100 µM.

Regarding `O=C1OC(O)[C@@H]2[C@H]1[C@H]1CC[C@@H]2O1` (some centres not stated), the GI50 was more than 100 µM and the TGI is more than 100 µM.

The next experiment concerns OVCAR-3 ovarian. Nature of the experiment: inhibition of tumour cell growth, NCI panel, 48 h.
Turning to `CN(C(=O)c1ccc(C(F)(F)F)cc1)c1ccc(Oc2ccc3c(c2)cc(C(=O)N2CCN(Cc4ccc(OC(F)F)cc4)CC2)n3C)nc1`, the GI50 was 11.3 µM and the TGI was more than 100 µM.

`O=S(=O)(CCn1c(Sc2ccccc2)c(Sc2ccccc2)c2ccccc21)c1ccccc1` showed a TGI of more than 100 µM.

`O=c1[nH]c(Nc2nc3ccccc3[nH]2)nc(O)c1-c1ccccc1` returned a TGI of more than 100 µM.

Turning to `O=C(Nc1ccc(Cl)cc1)c1cccc(NC2=C(Cl)C(=O)N(Cc3ccccc3)C2=O)c1`, the GI50 is 8.04 µM and the TGI was found to be 47 µM.

With `O=C(/C=C/c1ccncc1)c1cc(Cl)ccc1O`, the GI50 is 17.3 µM and the TGI came to 32.9 µM.

Turning to `Nc1ncnc2n[nH]c(Nc3ccc(F)cc3)c12`, the GI50 is 30.8 µM and the TGI is more than 100 µM.

On to `OCC#Cc1ccccc1C#Cc1ccccc1`, for which the GI50 is 6.9 µM and the TGI came out at 20.3 µM.

As for `CCN(CC)c1ccc(-c2cc(-c3cc(OC)c(OC)c(OC)c3)nc(N3CCOCC3)c2C#N)cc1`, the GI50 is 3.19 µM and the TGI stood at 20.9 µM.

In the case of `CC(=O)OC1=CC(n2cc(F)c(=O)[nH]c2=O)OC(C)C1=O` (configuration not stated), the TGI was more than 100 µM.

As for `NC1(C(=O)OCc2ccccc2)CCCC1`, the TGI turned out to be 28.7 µM.

In the case of `Cc1cc(/C=C/c2ccc3cc(N(C)C)ccc3[n+]2C)c(C)n1-c1ccccc1`, the GI50 is 0.197 µM and the TGI is 1.42 µM.

On to `Cn1cnc([N+](=O)[O-])c1S(=O)(=O)Oc1cccc2ccccc12`, for which the GI50 was 1.89 µM and the TGI is 3.96 µM.

In turn, `CCCC(=O)OC1CC(n2cc(F)c(=O)[nH]c2=O)OC1COP(=O)(OCC(Cl)(Cl)Cl)OCC(Cl)(Cl)Cl` (configuration not stated) showed a TGI of 38.8 µM.

For the compound `Fc1cc2[nH]ncc2c2c3c(c(-c4cn[nH]c4)nc12)CCCC3`, the GI50 is 1.53 µM and the TGI stood at 6.91 µM.

Compound `COc1cc(OC)cc(-c2cc(=O)c3c(OC)c(OC)c(OC)c(OC)c3o2)c1` yielded a TGI of more than 100 µM.

On to `CSc1nc(NC2OCC(OC(C)=O)C(OC(C)=O)C2OC(C)=O)c(N=CC=Nc2c(NC3OCC(OC(C)=O)C(OC(C)=O)C3OC(C)=O)nc(SC)[nH]c2=O)c(=O)[nH]1` (configuration not stated), for which the TGI was more than 100 µM.

For `CN(C)CCSC1=Nc2ccc(Cl)cc2C(c2ccccc2Cl)=NC1`, the GI50 was 17.3 µM and > 100 µM; the TGI is 31.8 µM and > 100 µM.

Consider `O=C1OC(O)[C@@H]2[C@H]1[C@H]1CC[C@@H]2O1` (some centres not stated), for which the GI50 is 32.8 µM and the TGI came to 69.2 µM.

Another experiment has as its system SK-OV-3 ovarian. Nature of the experiment: inhibition of tumour cell growth, NCI panel, 48 h.
Turning to `CN(C(=O)c1ccc(C(F)(F)F)cc1)c1ccc(Oc2ccc3c(c2)cc(C(=O)N2CCN(Cc4ccc(OC(F)F)cc4)CC2)n3C)nc1`, the GI50 was more than 100 µM and the TGI was more than 100 µM.

As for `O=S(=O)(CCn1c(Sc2ccccc2)c(Sc2ccccc2)c2ccccc21)c1ccccc1`, the TGI is more than 100 µM.

`O=c1[nH]c(Nc2nc3ccccc3[nH]2)nc(O)c1-c1ccccc1` gave a TGI of more than 100 µM.

Take `O=C(Nc1ccc(Cl)cc1)c1cccc(NC2=C(Cl)C(=O)N(Cc3ccccc3)C2=O)c1`: the GI50 is 29.6 µM and the TGI is more than 100 µM.

For the compound `O=C(/C=C/c1ccncc1)c1cc(Cl)ccc1O`, the GI50 was 27.4 µM and the TGI stood at 87.7 µM.

As for `Nc1ncnc2n[nH]c(Nc3ccc(F)cc3)c12`, the GI50 was 6.93 µM and the TGI is more than 100 µM.

Take `OCC#Cc1ccccc1C#Cc1ccccc1`: the GI50 was 16.6 µM and the TGI is 33.9 µM.

As to `CCN(CC)c1ccc(-c2cc(-c3cc(OC)c(OC)c(OC)c3)nc(N3CCOCC3)c2C#N)cc1`, the GI50 is 3.22 µM and the TGI was more than 100 µM.
